According to ChEMBL document CHEMBL1909046, “DrugMatrix in vitro pharmacology data”:

Experiments:
[1] = molecular target: Beta-3 adrenergic receptor (Homo sapiens, UniProt P13945); assay: DRUGMATRIX: Adrenergic beta3 radioligand binding (ligand: [125I] Cyanopindolol); assay type: cell membranes, HEK293, Membrane; conditions: Not Active = under 50% inhibition at 10 µM
Mu-type opioid receptor = Mu-type opioid receptor (Homo sapiens, UniProt P35372); assay: DRUGMATRIX: Opiate mu (OP3, MOP) radioligand binding (ligand: [3H] Diprenorphine); assay type: cell membranes, CHO-K1, Membrane; conditions: Not Active = under 50% inhibition at 10 µM
Mu-type opioid receptor, sequence (P35372 whole entry): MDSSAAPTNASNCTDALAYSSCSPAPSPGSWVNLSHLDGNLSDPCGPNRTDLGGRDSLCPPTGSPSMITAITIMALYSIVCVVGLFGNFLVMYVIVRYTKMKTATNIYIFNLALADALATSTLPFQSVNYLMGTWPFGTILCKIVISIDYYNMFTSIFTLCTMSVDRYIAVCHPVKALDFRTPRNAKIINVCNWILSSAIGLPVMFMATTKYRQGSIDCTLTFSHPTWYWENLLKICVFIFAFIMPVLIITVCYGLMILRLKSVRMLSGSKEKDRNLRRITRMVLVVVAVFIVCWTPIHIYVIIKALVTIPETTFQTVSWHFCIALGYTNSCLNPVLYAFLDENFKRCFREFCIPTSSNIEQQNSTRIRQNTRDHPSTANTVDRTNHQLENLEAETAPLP

Cytochrome P450 1A2 = molecular target: T1, Cytochrome P450 1A2 (Homo sapiens, UniProt P05177); conditions: bti-tn-5b1-4; note: in other assays of this panel Not Active means under 50% inhibition at 10 µM
T1 sequence (P05177 whole entry): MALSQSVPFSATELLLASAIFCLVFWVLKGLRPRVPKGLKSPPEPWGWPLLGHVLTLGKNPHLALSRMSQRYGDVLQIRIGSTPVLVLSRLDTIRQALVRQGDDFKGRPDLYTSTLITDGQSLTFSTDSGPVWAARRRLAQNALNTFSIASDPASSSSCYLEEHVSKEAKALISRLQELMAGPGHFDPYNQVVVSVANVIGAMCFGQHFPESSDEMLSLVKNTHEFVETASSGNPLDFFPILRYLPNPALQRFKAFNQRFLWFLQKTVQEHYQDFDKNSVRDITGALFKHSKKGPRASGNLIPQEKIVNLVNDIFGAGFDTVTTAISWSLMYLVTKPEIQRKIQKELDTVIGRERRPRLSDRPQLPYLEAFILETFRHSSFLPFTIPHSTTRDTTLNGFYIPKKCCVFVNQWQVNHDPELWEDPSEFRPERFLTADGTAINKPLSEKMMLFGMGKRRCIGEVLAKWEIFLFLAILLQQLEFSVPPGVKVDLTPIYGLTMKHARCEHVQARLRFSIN

[2] = molecular target: C-C chemokine receptor type 5 (Homo sapiens, UniProt P51681); assay type: cell membranes, Membrane; conditions: hek293; note: in other assays of this panel Not Active means under 50% inhibition at 10 µM
C-C chemokine receptor type 5, sequence (P51681 whole entry): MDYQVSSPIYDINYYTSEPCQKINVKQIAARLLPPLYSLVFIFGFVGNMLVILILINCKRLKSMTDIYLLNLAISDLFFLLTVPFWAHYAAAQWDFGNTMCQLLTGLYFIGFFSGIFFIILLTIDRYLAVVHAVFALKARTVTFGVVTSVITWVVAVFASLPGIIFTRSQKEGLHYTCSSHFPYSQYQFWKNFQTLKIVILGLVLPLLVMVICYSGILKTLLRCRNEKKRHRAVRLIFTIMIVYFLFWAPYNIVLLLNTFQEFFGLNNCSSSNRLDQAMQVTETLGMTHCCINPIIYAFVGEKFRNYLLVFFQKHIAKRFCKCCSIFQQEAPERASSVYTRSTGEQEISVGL

[3] = molecular target: T2, Receptor-type tyrosine-protein phosphatase C (Homo sapiens, UniProt P08575); set-up: species or system Escherichia coli;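 note: inhibition of CD45 enzyme activity measured using DiFMUP as substrate; in other assays of this panel Not Active means under 50% inhibition at 10 µM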
T2 sequence (P08575 whole entry): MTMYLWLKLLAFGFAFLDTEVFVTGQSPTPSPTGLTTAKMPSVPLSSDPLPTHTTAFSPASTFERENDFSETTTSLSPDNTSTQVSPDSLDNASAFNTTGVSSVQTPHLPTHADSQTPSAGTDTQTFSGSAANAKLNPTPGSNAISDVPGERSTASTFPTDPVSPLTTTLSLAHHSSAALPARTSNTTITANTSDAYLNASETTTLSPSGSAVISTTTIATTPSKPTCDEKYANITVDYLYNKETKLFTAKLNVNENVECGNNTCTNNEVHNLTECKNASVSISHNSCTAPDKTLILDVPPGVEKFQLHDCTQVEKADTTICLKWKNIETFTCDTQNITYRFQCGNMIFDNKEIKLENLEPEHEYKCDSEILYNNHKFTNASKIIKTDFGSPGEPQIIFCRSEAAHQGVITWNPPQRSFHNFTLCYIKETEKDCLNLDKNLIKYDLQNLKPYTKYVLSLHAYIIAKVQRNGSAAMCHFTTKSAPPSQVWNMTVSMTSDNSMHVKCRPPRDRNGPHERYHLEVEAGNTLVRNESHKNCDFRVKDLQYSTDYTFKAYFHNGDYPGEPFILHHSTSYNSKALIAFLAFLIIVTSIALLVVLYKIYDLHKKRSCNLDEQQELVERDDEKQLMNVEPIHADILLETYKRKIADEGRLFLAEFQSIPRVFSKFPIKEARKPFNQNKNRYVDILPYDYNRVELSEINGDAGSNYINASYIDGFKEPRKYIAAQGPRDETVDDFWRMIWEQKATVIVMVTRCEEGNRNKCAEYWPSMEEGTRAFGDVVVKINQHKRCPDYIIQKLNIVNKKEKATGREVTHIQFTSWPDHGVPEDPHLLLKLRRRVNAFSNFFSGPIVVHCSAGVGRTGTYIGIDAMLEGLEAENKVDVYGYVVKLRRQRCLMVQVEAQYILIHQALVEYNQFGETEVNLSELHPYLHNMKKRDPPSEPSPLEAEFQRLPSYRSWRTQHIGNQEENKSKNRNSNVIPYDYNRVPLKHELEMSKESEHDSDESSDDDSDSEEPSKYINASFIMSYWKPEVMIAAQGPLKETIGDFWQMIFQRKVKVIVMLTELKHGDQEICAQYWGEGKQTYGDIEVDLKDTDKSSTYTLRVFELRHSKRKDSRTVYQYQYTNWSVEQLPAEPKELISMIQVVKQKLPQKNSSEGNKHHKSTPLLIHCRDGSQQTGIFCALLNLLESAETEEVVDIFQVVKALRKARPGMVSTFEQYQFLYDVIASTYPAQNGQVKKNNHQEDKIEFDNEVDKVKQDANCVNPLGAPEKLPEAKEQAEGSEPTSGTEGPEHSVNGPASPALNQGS

D(1A) dopamine receptor = D(1A) dopamine receptor (Homo sapiens, UniProt P21728); assay: DRUGMATRIX: Dopamine D1 radioligand binding (ligand: [3H] SCH-23390); assay type: cell membranes, CHO, Membrane; conditions: cho; Not Active = under 50% inhibition at 10 µM
D(1A) dopamine receptor, sequence (P21728 whole entry): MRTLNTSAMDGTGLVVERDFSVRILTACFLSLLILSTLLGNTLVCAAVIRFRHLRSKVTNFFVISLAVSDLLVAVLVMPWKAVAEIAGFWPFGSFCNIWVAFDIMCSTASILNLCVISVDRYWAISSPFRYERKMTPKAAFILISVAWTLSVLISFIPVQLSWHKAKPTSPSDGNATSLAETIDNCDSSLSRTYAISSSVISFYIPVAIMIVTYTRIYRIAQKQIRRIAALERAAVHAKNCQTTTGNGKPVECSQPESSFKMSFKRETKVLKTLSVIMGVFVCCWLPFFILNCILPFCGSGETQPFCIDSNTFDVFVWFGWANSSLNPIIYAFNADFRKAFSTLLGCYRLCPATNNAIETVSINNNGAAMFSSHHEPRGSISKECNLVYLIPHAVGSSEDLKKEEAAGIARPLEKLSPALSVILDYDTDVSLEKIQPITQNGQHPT

[4] = DRUGMATRIX: Calcium Channel Type L, Phenylalkylamine radioligand binding (ligand: [3H] (-)-Desmethoxyverapamil (D-888)); assay type: cell membranes, Rattus norvegicus, Wistar, Brain, Membrane; conditions: Not Active = under 50% inhibition at 10 µM

Beta-3 adrenergic receptor, sequence (P13945 whole entry): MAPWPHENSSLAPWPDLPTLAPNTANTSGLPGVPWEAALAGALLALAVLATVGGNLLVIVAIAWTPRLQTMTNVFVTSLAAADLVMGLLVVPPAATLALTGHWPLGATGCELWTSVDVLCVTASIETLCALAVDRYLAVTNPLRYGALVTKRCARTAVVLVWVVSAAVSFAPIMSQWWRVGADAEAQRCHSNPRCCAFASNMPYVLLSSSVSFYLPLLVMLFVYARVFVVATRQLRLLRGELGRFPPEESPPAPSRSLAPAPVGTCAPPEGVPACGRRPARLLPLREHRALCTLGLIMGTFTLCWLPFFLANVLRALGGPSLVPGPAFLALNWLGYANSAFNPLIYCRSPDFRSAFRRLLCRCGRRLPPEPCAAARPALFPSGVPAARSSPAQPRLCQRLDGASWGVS

Compound	IC50 ([1]; hek293)	IC50 (Mu-type opioid receptor; cho-k1)	IC50 (Cytochrome P450 1A2)	Ki (Cytochrome P450 1A2)	IC50 [2]	IC50 [3]	IC50 ([1]; read-out: IC50)	Ki ([1]; read-out: Ki)	Ki (Mu-type opioid receptor)	IC50 (Mu-type opioid receptor; read-out: IC50)	IC50 (D(1A) dopamine receptor)	IC50 [4]	Ki [4]	Ki ([1]; hek293)	Ki (D(1A) dopamine receptor)	Ki [2]	Ki [3]
CC(=O)Nc1nnc(S(N)(=O)=O)s1 [ACETAZOLAMIDE]	Not Active	Not Active	Not Active	Not Active	Not Active	Not Active	–	–	–	–	–	–	–	–	–	–	–
O=c1[nH]c2ccccc2n1CCCN1CCC(n2c(=O)[nH]c3cc(Cl)ccc32)CC1 [DOMPERIDONE]	Not Active	–	–	–	Not Active	Not Active	–	–	–	–	–	–	–	–	–	–	–
CC(C)OC(=O)C(C)(C)Oc1ccc(C(=O)c2ccc(Cl)cc2)cc1 [FENOFIBRATE]	–	Not Active	Not Active	Not Active	Not Active	Not Active	124 µM	93 µM	–	–	–	–	–	–	–	–	–
OCCN1CCN(CCCN2c3ccccc3Sc3ccc(C(F)(F)F)cc32)CC1 [FLUPHENAZINE]	–	–	–	–	Not Active	Not Active	29.5 µM	22.1 µM	8.42 µM	20.7 µM	–	–	–	–	–	–	–
CN1C2CCCC1CC(NC(=O)c1nn(C)c3ccccc13)C2 (configuration not stated) [GRANISETRON]	Not Active	Not Active	Not Active	Not Active	Not Active	Not Active	–	–	–	–	–	–	–	–	–	–	–
CC[C@@H](CO)NC(=O)[C@@H]1C=C2c3cccc4c3c(cn4C)C[C@H]2N(C)C1 [METHYSERGIDE]	Not Active	Not Active	Not Active	Not Active	Not Active	Not Active	–	–	–	–	–	–	–	–	–	–	–
CCN(CC)CC#CCOC(=O)C(O)(c1ccccc1)C1CCCCC1 (configuration not stated) [OXYBUTYNIN]	Not Active	Not Active	Not Active	Not Active	Not Active	Not Active	–	–	–	–	–	–	–	–	–	–	–
C=C(C)[C@H]1Cc2c(ccc3c2O[C@@H]2COc4cc(OC)c(OC)cc4[C@@H]2C3=O)O1 [ROTENONE]	Not Active	–	Not Active	Not Active	Not Active	Not Active	–	–	–	–	Not Active	Not Active	Not Active	–	–	–	–
CN[C@@H]1[C@H](O)[C@H](NC)[C@H]2O[C@@]3(O)C(=O)C[C@@H](C)O[C@H]3O[C@@H]2[C@H]1O [SPECTINOMYCIN]	Not Active	Not Active	–	–	Not Active	Not Active	–	–	–	–	Not Active	Not Active	Not Active	–	–	–	–
CCS(=O)(=O)CCn1c([N+](=O)[O-])cnc1C [TINIDAZOLE]	Not Active	Not Active	–	–	Not Active	Not Active	–	–	–	–	Not Active	Not Active	Not Active	–	–	–	–
NC[C@H]1O[C@H](O[C@H]2[C@H](O)[C@@H](O[C@H]3O[C@H](CO)[C@@H](O)[C@H](N)[C@H]3O)[C@H](N)C[C@@H]2N)[C@H](N)C[C@@H]1O [TOBRAMYCIN]	Not Active	Not Active	–	–	Not Active	Not Active	–	–	–	–	Not Active	Not Active	Not Active	–	–	–	–
O=c1n(CCCN2CCN(c3cccc(Cl)c3)CC2)nc2ccccn12 [TRAZODONE]	Not Active	Not Active	Not Active	Not Active	Not Active	Not Active	–	–	–	–	–	–	–	–	–	–	–
O=C(O)C(Cl)(Cl)Cl [TRICHLOROACETIC ACID]	Not Active	–	Not Active	Not Active	Not Active	Not Active	–	–	–	–	Not Active	Not Active	Not Active	–	–	–	–
STANNOUS FLUORIDE	Not Active	–	Not Active	Not Active	Not Active	Not Active	–	–	–	–	Not Active	Not Active	Not Active	Not Active	Not Active	Not Active	Not Active
THIMEROSAL	Not Active	–	Not Active	Not Active	Not Active	Not Active	–	–	–	–	Not Active	Not Active	Not Active	Not Active	Not Active	Not Active	Not Active
